# Data published in patent US7192607B2, “Formulations for the prevention or the treatment of diseases affecting mucosae or skin, or for pregnancy prevention, and an applicator for the delivery of topical formulations into mucosal cavities” (Infectio Recherche Inc, priority 2002, dated 2007).
# Experiments:
# [1] = In vivo skin penetration of antivirals (distribution in skin tissues); parameters: species or system mice
# [2] = Concentration of acyclovir in plasma after topical application; type: in vivo; settings: drug incorporated within the poloxamer matrix; infected vs uninfected mice; 24 h
# HSV-1 (strain F) [3] = assay: Treatment of HSV-1 cutaneous lesions in mice with topical formulations; type: in vivo, hairless mice (SKH1); settings: treatment started 24 h after infection, 3 times daily for 4 days
# Method: For the purpose of testing the efficacy of our gel formulations in a murine model of cutaneous HSV-1 infection, the solutions were prepared within a phosphate buffer (0.2 M, pH 6) to be compatible with the pH of the skin.
# The efficacy of our different topical formulations has been evaluated in a murine model of cutaneous HSV-1 infection. In brief, female hairless mice (SKH1; Charles River Breeding Laboratories Inc., St-Constant, QC, Canada), 5–7 weeks old were anesthetized by intraperitoneal injection of a mixture containing 70 mg/kg ketamine hydrochloride and 11.5 mg/kg xylazine. The virus was inoculated on the lateral side of the body in the left lumbar skin area. The skin was scratched six times with a 27 gauge needle held vertically in a crossed-hatched pattern. Fifty μl of viral suspension (HSV-1 strain F, 1.5×10^6 plaque forming units (PFU)/ml) was rubbed for 10 to 15 sec on the scarified skin area with a cotton tipped applicator saturated with culture medium [minimum essential medium (MEM) supplemented with 100 U/ml of penicillin-streptomycin, 2 mM L-glutamine and 2% fetal bovine serum (MEM-E +2% FBS)]. The scarified area was protected with a corn cushion which was maintained on the mice body with surgical tape. […]
# Different treatment regimens were evaluated in this study. […] The efficacy of the different formulations was evaluated using lesion scores and survival.
# HSV-1 (strain F) [4] = assay: In vitro susceptibility of HSV-1 to combination of foscarnet and SLS in Vero cells (PFU); type: cell-based, Herpes simplex virus type-1; settings: combinations of different concentrations in overlay, 2 days, FIG. 22
# Method: The effect of SLS on the efficacy of foscamet against HSV-1 (strain F) was investigated in Vero cells. In brief, cells were seeded in 24 well-plates (Costar, Montreal, QC, Canada) and were incubated with HSV-1 strain F (approximately 100 PFU/ml) for 2 h at 37° C. to allow virus adsorption. Afterwards, virus was removed and cells overlaid with 0.5 ml of 0.6% agarose Seaplaque (Marine Colloids, Rockland, Mass.) containing different concentrations of foscarnet, SLS or combination of both compounds. The plates were incubated for 2 days at 37° C. Cells were then fixed with 10% formaldehyde in PBS for 20 min, washed with deionized water and stained with 0.05% methylene blue. Virus susceptibility was evaluated via the determination of PFU.
# HSV-1 (strain F) [5] = assay: Infectivity of HSV-1 (strain F) to Vero cells after treatment with SLS or DS (plaque forming units); type: cell-based, Herpes simplex virus type-1; settings: independent of whether the virus was pretreated, FIG. 1, read-out: concentration giving a loss of 50% of the viral infectivity
# Method: The effect of pretreating different strains of herpes viruses with SLS or DS on their viral infectivities to susceptible cells has been evaluated. In brief, cells were seeded in 24 well-plates (Costar, Montreal, QC, Canada). Prior to infection, the virus was either suspended in culture medium or phosphate buffered saline (PBS), or incubated with different concentrations of SLS in PBS for 1 h at 37° C. At confluency, cells were incubated with viral suspensions by centrifuging the plates (750× g for 45 min at 20° C.) to allow virus adsorption. Virus was removed and cell sheets were then overlaid with 0.5 ml of 0.6% agarose Seaplaque (Marine Colloids, Rockland, Md.) prepared in appropriate culture medium. The plates were incubated for 2 days at 37° C. Cells were then fixed with 10% formaldehyde in PBS for 20 min, washed with deionized water and stained with 0.05% methylene blue. Viral infectivity was evaluated via the determination of Plaque Forming Units (PFU).
# HSV-1 (strain F) infectivity was reduced to 21% when viral particles were pretreated with 25 μM SLS. The infectivities of all HSV-2 strains were between 50 to 70% following preincubation with 25 μM SLS. A complete loss of the infectivity of all strains tested were obtained following pretreatment of the viruses with 50 μM SLS.
# When SLS was immediately added to Vero cells following their infection, the loss of viral infectivity was less dramatic compared to that obtained for virus pretreated for 1 h at 37° C. with the same SLS concentrations. […] Similarly, pretreatment of the HSV-2 (strain 333) with SLS also influenced the infectivity of this strain (data not shown). On the other hand, DS reduces the infectivity of the virus independent of whether the virus was pretreated with DS.
# HSV-1 (strain F) [6] = assay: Efficacy of SLS or DS added in overlay after infection against HSV-1 (strain F) in Vero cells (PFU); type: cell-based, Herpes simplex virus type-1; settings: cells infected 2 h, compound in overlay for 2 days, FIG. 2
# Method: In brief, cells were infected with the virus for 2 h at 37° C. Afterwards, supernatant was removed and cells were overlaid with 0.5 ml of EMEM +2% FBS containing 0.6% agarose Seaplaque and SLS or DS at the desired concentration. Plates were then incubated for 2 days at 37° C. in a 5% CO2 atmosphere. Cells were fixed with 10% formaldehyde in PBS for 20 min, washed with deionized water and stained with 0.05% methylene blue. Viral infectivity was evaluated following the determination of PFU.
# HSV-1 (strain F) [7] = assay: Murine cutaneous infection model, HSV-1 pretreated with SLS or DS; type: in vivo, hairless mice (SKH1)
# Method: The effect of pretreating HSV-1 (strain F) with SLS on viral infectivity has also been evaluated in a murine cutaneous infection model. Female hairless mice (SKH1; Charles River Breeding Laboratories Inc., St-Constant, QC, Canada), 5–6 weeks old were used throughout this study. […] Mice were anesthetized by intraperitoneal injection of a mixture containing 70 mg/kg ketamine hydrochloride (Rogarsetic* injection USP; Rogar/STB Inc. Montreal, QC, Canada) and 11.5 mg/kg xylazine (Rompun®; Miles Canada Inc., Etobicoke, ON, Canada). The virus was inoculated on the lateral side of the body in the left lumbar skin area. The skin was scratched six times in a crossed-hatched pattern with a 27-gauge needle held vertically. Viral suspension (50 μl) was deposited onto the scarified area and rubbed for 10 to 15 see with a cotton tipped applicator saturated with EMEM+2% FBS or SLS or DS solutions. The scarified area was protected with a corn cushion which was maintained on the mice body with surgical tape. The porous inner wall of the aperture of the corn cushion was impermeabilized with tissue adhesive prior to use to prevent absorption of the drug. The aperture of the corn cushion was also closed with surgical tape. Mice were then returned to their cages and observed twice daily.
# In infected untreated mice, no pathological signs of cutaneous infection were visible during the first four days following infection and only the scarified area remained appearent. On day 5, herpetic skin lesions began to appear in some mice in the form of small vesicles distant from the inoculation site. On day 6, almost all untreated mice developed herpetic skin lesions in the form of a 4–5 mm wide band extending from the spine to the ventral midline of the infected dermatome similar to zoster-like infections. Maximal mean lesion score was observed on day 8. Mean lesion score decreased thereafter from day 11 to day 15 because of spontaneous regression of cutaneous lesions in some mice. […] Of prime importance, all mice infected with the virus pretreated with 100 μM SLS survived the infection (data not shown).
# Vero cells = assay: Viability of Vero cells exposed to SLS or DS (MTS test); settings: Vero cells exposed 1 h at 37° C. to concentrations as in FIG. 1 and Table 1; data not shown
molecule,measurement,setting,value
Nc1nc2c(ncn2COCCO)c(=O)[nH]1 [acyclovir],effect of infection on amount in the epidermis,"[1]; infected vs uninfected mice, 24 h",did not significantly increase
same,concentration in the epidermis and dermis compared with that of foscarnet,"[1]; uninfected and infected mice, irrespective of the carrier, 24 h",higher
same,increase of concentration in plasma by infection,[2],4 fold
O=C(O)P(=O)(O)O [foscarnet],mice that survived the infection,HSV-1 (strain F) [3]; 0.5% foscarnet in solution,Half
same,mean lesion score,HSV-1 (strain F) [3]; solution of 0.5% foscarnet,large reduction
same,concentration in the epidermis and dermis,"[1]; infected mice, drug incorporated within the poloxamer vs phosphate buffer, 24 h",significantly higher
same,amounts found in the underlying epidermis and dermis,"[1]; uninfected mice, irrespective of the carrier, 24 h after topical application",No or negligible amounts
same,efficacy of foscarnet against HSV-1 (strain F) in the presence of SLS,HSV-1 (strain F) [4],enhanced
dextran sulfate [DS],IC50,HSV-1 (strain F) [5],~1 nM
same,concentration with complete efficacy against viral replication,HSV-1 (strain F) [6],20 µM
same,mean lesion score,HSV-1 (strain F) [7]; virus pretreated with 0.25 nM DS,partial reduction
same,protection against the development of herpetic lesions,HSV-1 (strain F) [7]; virus pretreated with either 1 or 10 nM DS,better protection
same,"cytotoxicity (viability, MTS test)",Vero cells,No signs of cytotoxicity
